SMILES strings stand for the structures. pEC50: −log10 of the molar value.

human wild type-CFTR, sequence (P13569 whole entry): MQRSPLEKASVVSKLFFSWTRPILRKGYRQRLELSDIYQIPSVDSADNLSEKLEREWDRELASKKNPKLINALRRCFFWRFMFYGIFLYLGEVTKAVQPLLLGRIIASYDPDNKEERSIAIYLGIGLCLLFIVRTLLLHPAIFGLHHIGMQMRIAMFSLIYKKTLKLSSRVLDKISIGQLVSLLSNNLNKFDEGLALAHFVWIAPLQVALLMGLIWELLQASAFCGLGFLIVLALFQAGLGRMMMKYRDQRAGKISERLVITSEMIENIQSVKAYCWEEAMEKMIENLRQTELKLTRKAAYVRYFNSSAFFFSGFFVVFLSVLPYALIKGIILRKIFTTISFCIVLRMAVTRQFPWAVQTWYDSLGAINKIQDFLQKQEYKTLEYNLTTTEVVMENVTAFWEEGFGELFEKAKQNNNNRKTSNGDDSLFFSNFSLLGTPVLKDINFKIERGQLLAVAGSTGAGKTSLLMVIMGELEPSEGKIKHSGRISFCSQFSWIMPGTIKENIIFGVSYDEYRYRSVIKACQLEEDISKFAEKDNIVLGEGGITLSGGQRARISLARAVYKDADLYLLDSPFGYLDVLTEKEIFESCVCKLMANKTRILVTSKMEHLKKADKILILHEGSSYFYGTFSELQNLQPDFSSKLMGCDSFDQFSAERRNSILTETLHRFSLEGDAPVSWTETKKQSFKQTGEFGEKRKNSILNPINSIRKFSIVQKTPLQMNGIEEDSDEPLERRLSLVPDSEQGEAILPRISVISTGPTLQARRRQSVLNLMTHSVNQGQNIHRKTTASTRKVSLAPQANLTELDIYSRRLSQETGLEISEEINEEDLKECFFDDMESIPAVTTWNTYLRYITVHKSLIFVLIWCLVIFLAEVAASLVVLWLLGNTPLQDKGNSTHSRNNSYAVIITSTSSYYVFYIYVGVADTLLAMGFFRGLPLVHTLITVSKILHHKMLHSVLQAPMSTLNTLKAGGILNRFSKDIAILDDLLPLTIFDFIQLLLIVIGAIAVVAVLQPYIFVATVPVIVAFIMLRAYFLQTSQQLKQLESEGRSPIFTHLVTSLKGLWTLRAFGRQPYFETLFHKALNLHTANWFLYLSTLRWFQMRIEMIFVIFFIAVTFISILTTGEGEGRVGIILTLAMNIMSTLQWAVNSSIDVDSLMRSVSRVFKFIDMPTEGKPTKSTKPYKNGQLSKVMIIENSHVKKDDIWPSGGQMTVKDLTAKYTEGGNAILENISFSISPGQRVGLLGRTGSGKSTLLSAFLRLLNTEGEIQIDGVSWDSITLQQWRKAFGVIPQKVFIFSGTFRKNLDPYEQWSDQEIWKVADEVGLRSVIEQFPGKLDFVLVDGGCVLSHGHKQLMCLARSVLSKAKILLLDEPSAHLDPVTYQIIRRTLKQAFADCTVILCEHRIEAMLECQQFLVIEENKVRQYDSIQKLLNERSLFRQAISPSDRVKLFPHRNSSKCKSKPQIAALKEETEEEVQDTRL

The experiment concerns the target human wild type-CFTR (Homo sapiens, UniProt P13569). In words: Cell-based YFP assay. The arrangement: expressed in transfected cells; host or cells: CHO-K1 (Chinese hamster ovary). Conditions: CHO-K1 cells expressing human wild type-CFTR and YFP-H148Q/I152L; forskolin 20 μM = 100% activity; read-out: Cell-based YFP Assay (EC50) Concentration Range. In short, it runs like this: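 I⁻-driven YFP fluorescence quenching at 37 °C: 2 s baseline, addition of 140 mM iodide solution, then 14 s of readings at 0.4 s intervals. Cells were CHO-K1 expressing human wild-type CFTR plus YFP-H148Q/I152L. EC50 derived from averaged triplicates.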
In the case of `COC(=O)c1ccc(N(C)C(=O)c2cc3nccc(-c4ccc(OC)c(OC)c4)n3n2)cc1` [Compound 183, methyl 4-(7-(3,4-dimethoxyphenyl)-N-methylpyrazolo[1,5-a]pyrimidine-2-carboxamido)benzoate], the pEC50 is 5.70 to 6.70.

As for `COc1ccc(-c2ccnc3cc(C(=O)N4CCN(C(=O)CO)CC4)nn23)cc1OC` [Compound 90, 1-(4-(7-(3,4-dimethoxyphenyl)pyrazolo[1,5-a]pyrimidine-2-carbonyl)piperazin-1-yl)-2-hydroxyethan-1-one], the pEC50 is no more than 5.70. For the compound `COc1ccc(-c2ccnc3cc(C(=O)N4CCN(C(=O)c5ccccc5)C5(CC5)C4)nn23)cc1OC` [Compound 367, (4-benzoyl-4,7-diazaspiro [2.5]octan-7-yl)(7-(3,4-dimethoxyphenyl)pyrazolo[1,5-a]pyrimidin-2-yl)methanone], the pEC50 is greater than 6.70. Under `COc1ccc(-c2ccnc3cc(C(=O)NC45CCC(C(=O)OCCCN6CCOCC6)(CC4)CC5)nn23)cc1OC` [Compound 255, 3-morpholinopropyl 4-(7-(3,4-dimethoxyphenyl)pyrazolo [1,5-a]pyrimidine-2-carboxamido)bicyclo[2.2.2] octane-1-carboxylate] stands greater than 6.70. Regarding `COc1ccc(-c2ccnc3cc(C(=O)N4CCN(C(=O)OC(C)(C)C)[C@@H](C)C4)nn23)cc1OC` [Compound 112, tert-butyl (S)-4-(7-(3,4-dimethoxyphenyl)pyrazolo[1,5-a]pyrimidine-2-carbonyl)-2-methylpiperazine-1-carboxylate], the pEC50 was greater than 6.70.

`COc1ccc(-c2ccnc3cc(C(=O)Nc4ccc(C(=O)N5CCC[C@H]5C(=O)O)cc4)nn23)cc1OC` [Compound 50, (4-(7-(3,4-dimethoxyphenyl)pyrazolo[1,5-a]pyrimidine-2-carboxamido)benzoyl)-L-proline]: the pEC50 is no more than 5.70. The result for `COc1ccc(-c2ccnc3cc(C(=O)N4CCc5ccc(C(=O)N6CCOCC6)cc5C4)nn23)cc1OC` [Compound 238, (7-(3,4-dimethoxyphenyl)pyrazolo[1,5-a]pyrimidin-2-yl)(7-(morpholine-4-carbonyl)-3,4-dihydroisoquinolin-2(1H)-yl)methanone] reads no more than 5.70. As for `COc1ccc(C(=O)N2CCN(C(=O)c3cc4nccc(-c5ccc(OC)c(OC)c5)n4n3)C[C@@H]2C)cc1` [Compound 319, (S)-(7-(3,4-dimethoxyphenyl)pyrazolo[1,5-a]pyrimidin-2-yl)(4-(4-methoxybenzoyl)-3-methylpiperazin-1-yl) methanone], the pEC50 was 5.70 to 6.70. Under `COc1ccc(-c2ccnc3cc(C(=O)Nc4ccc(OC(C)C)cc4)nn23)cc1OC` [Compound 290, 7-(3,4-dimethoxyphenyl)-N-(4-isopropoxyphenyl)pyrazolo [1,5-a]pyrimidine-2-carboxamide] stands 5.70 to 6.70. In the case of `CCOc1ccc(NC(=O)c2cc3nccc(-c4cccc(OC)c4)n3n2)cc1` [Compound 24, N-(4-ethoxyphenyl)-7-(3-methoxyphenyl)pyrazolo [1,5-a]pyrimidine-2-carboxamide], the pEC50 is no more than 5.70.

Regarding `COc1ccc(-c2ccnc3cc(C(=O)N4CCN(Cc5ccccc5)CC4)nn23)cc1OC` [Compound 154, (4-benzylpiperazin-1-yl) (7-(3,4-dimethoxyphenyl)pyrazolo [1,5-a]pyrimidin-2-yl)methanone], the pEC50 was 5.70 to 6.70. Under `COc1ccc(-c2ccnc3cc(C(=O)Nc4ccc(C(=O)N5CCN(C)CC5)c(F)c4)nn23)cc1OC` [Compound 175, 7-(3,4-dimethoxyphenyl)-N-(3-fluoro-4-(4-methylpiperazine-1-carbonyl)phenyl)pyrazolo [1,5-a]pyrimidine-2-carboxamide] stands greater than 6.70. `COc1ccc(-c2ccnc3cc(C(=O)N4CCCc5cc(C(=O)O)ccc54)nn23)cc1OC` [Compound 233, 1-(7-(3,4-dimethoxyphenyl)pyrazolo[1,5-a]pyrimidine-2-carbonyl)-1,2,3,4-tetrahydroquinoline-6-carboxylic acid]: the pEC50 is no more than 5.70. In the case of `COc1ccc(-c2ccnc3cc(C(=O)Nc4ccc(C(=O)NCCN(C(C)C)C(C)C)cc4)nn23)cc1OC` [Compound 120, N-(4-((2-(diisopropylamino)ethyl)carbamoyl)phenyl)-7-(3,4-dimethoxyphenyl) pyrazolo[1,5-a]pyrimidine-2-carboxamide], the pEC50 is greater than 6.70. Under `CCOc1ccc(NC(=O)c2cc3nccc(-c4ccccc4)n3n2)cc1` [Compound 300, N-(4-ethoxyphenyl)-7-phenylpyrazolo[1,5-a]pyrimidine-2-carboxamide] stands no more than 5.70; under `COc1ccc(-c2ccnc3cc(C(=O)N4C[C@H](C)N(C(=O)c5ccccc5)[C@@H](C)C4)nn23)cc1OC` [Compound 364, ((3S,5S)-4-benzoyl-3,5-dimethylpiperazin-1-yl) (7-(3,4-dimethoxyphenyl)pyrazolo[1,5-a]pyrimidin-2-yl)methanone], greater than 6.70; under `COc1ccc(-c2ccnc3cc(C(=O)N[C@H]4CC[C@H](C(=O)N5CCN(c6ccccn6)CC5)CC4)nn23)cc1OC` [Compound 342, 7-(3,4-dimethoxphenyl)-N-((1R,4R)-4-(4-(pyridin-2-yl)piperazine-1-carbonyl)cyclohexyl) pyrazolo[1,5-a] pyrimidine-2-carboxamide], 5.70 to 6.70. As for `COc1ccc(-c2ccnc3cc(C(=O)N[C@H]4CC[C@@H](C(=O)N5CCNCC5)CC4)nn23)cc1OC` [Compound 81, 7-(3,4-dimethoxyphenyl)-N-((1S,4S)-4-(piperazine-1-carbonyl)cyclohexyl) pyrazolo[1,5-a]pyrimidine-2-carboxamide], the pEC50 was no more than 5.70. The result for `COc1ccc(-c2ccnc3cc(C(=O)Nc4ccc(C(=O)NCCCN(C)C)cc4)nn23)cc1OC` [Compound 220, 7-(3,4-dimethoxyphenyl)-N-(4-((3-(dimethylamino)propyl)carbamoyl)phenyl) pyrazolo[1,5-a]pyrimidine-2-carboxamide] reads no more than 5.70; that for `COc1ccc(-c2ccnc3cc(C(=O)N4CCN(C(=O)Nc5ccccc5)[C@@H](C)C4)nn23)cc1OC` [Compound 354, (S)-4-(7-(3,4-dimethoxy-phenyl)pyrazolo[1,5-a]pyrimidine-2-carbonyl)-2-methyl-N-phenylpiperazine-1-carboxamide], greater than 6.70.

`CCCOC(=O)[C@H]1CC[C@H](NC(=O)c2cc3nccc(-c4ccc(OC)c(OC)c4)n3n2)CC1` [Compound 331, propyl (1R,4R)-4-(7-(3,4-dimethoxyphenyl)pyrazolo [1,5-a]pyrimidine-2-carboxamido)cyclohexane-1-carboxylate]: the pEC50 was 5.70 to 6.70. The result for `COc1ccc(-c2ccnc3cc(C(=O)N4CCc5ccc(C(=O)N6CCN(C)CC6)cc54)nn23)cc1OC` [Compound 252, (7-(3,4-dimethoxyphenyl)pyrazolo[1,5-a]pyrimidin-2-yl)(6-(4-methylpiperazine-1-carbonyl)indolin-1-yl)methanone] reads no more than 5.70; that for `COc1ccc(-c2ccnc3cc(C(=O)Nc4ccc(C(=O)O)c(Cl)c4)nn23)cc1OC` [Compound 279, 2-chloro-4-(7-(3,4-dimethoxyphenyl)pyrazolo [1,5-a]pyrimidine-2-carboxamido)benzoic acid], no more than 5.70. Consider `COc1ccc(-c2ccnc3cc(C(=O)Nc4ccc(C(=O)N5CCN(C)[C@@H](C)C5)cc4)nn23)cc1OC` [Compound 195, (S)-7-(3,4-dimethoxyphenyl)-N-(4-(3,4-dimethylpiperazine-1-carbonyl)phenyl)pyrazolo [1,5-a]pyrimidine-2-carboxamide], for which the pEC50 is 5.70 to 6.70. Under `COc1ccc(-c2ccnc3cc(C(=O)Nc4ccc(NC(=O)CN(C)C)cc4)nn23)cc1OC` [Compound 258, 7-(3,4-dimethoxyphenyl)-N-(4-(2-(dimethylamino)acetamido)phenyl)pyrazolo[1,5-a]pyrimidine-2-carboxamide] stands greater than 6.70; under `COc1ccc(-c2ccnc3cc(C(=O)Nc4ccc(OC(=O)[C@@H](N)C(C)C)cc4)nn23)cc1OC` [Compound 172, 4-(7-(3,4-dimethoxyphenyl)pyrazolo[1,5-a]pyrimidine-2-carboxamido) phenyl L-valinate], greater than 6.70; under `COc1ccc(-c2ccnc3cc(C(=O)N4CCN(C(=O)c5cccc(F)c5)[C@@H](C)C4)nn23)cc1OC` [Compound 263, (S)-(7-(3,4-dimethoxyphenyl)pyrazolo[1,5-a]pyrimidin-2-yl)(4-(3-fluorobenzoyl)-3-methylpiperazin-1-yl) methanone], 5.70 to 6.70. On to `CCOc1ccc(NC(=O)c2cc3nccc(-c4ccc(F)c(OC)c4)n3n2)cc1` [Compound 307, N-(4-ethoxyphenyl)-7-(4-fluoro-3-methoxyphenyl)pyrazolo [1,5-a]pyrimidine-2-carboxamide], for which the pEC50 was 5.70 to 6.70. Under `COC(=O)c1ccc(NC(=O)c2cc3nccc(-c4ccc(Cl)c(Cl)c4)n3n2)cc1` [Compound 40, methyl 4-(7-(3,4-dichlorophenyl)pyrazolo [1,5-a]pyrimidine-2-carboxamido) benzoate] stands no more than 5.70; under `CCOc1ccc(NC(=O)c2cc3nccc(-c4cc(OC)cc(OC)c4)n3n2)cc1` [Compound 315, 7-(3,5-dimethoxyphenyl)-N-(4-ethoxyphenyl)pyrazolo [1,5-a]pyrimidine-2-carboxamide], no more than 5.70. Regarding `CCOc1ccc(NC(=O)c2cc3nccc(-c4ccc(F)c(Cl)c4)n3n2)cc1` [Compound 316, 7-(3-chloro-4-fluorophenyl)-N-(4-ethoxyphenyl)pyrazolo [1,5-a]pyrimidine-2-carboxamide], the pEC50 is no more than 5.70. Consider `COc1ccc(-c2ccnc3cc(C(=O)Nc4ccc(C(=O)N[C@@H](CC(=O)O)C(=O)O)cc4)nn23)cc1OC` [Compound 88, (4-(7-(3,4-dimethoxyphenyl)pyrazolo[1,5-a]pyrimidine-2-carboxamido)benzoyl)-L-aspartic acid], for which the pEC50 was no more than 5.70.

The record behind these values is patent US20240199623A1 (ILDONG PHARMACEUTICAL CO., LTD., priority 2020, published 2024).
